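Dose response: 5 concentrations. Exposure: 48 h. Format: 96-well plates. Endpoint: linear interpolation; highest concentration if not reached. Definition used: TGI = concentration required for complete inhibition of growth.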
Legend:
Assay in all cases: growth of human tumour cells (NCI), 48 h
U251 CNS = tested on: U251 CNS
MDA-MB-231 breast = tested on: MDA-MB-231 breast
MALME-3M melanoma = tested on: MALME-3M melanoma
MDA-MB-435 = tested on: MDA-MB-435
OVCAR-5 ovarian = tested on: OVCAR-5 ovarian
HS 578T breast = tested on: HS 578T breast
MOLT-4 leukemia = tested on: MOLT-4 leukemia
SNB-19 CNS = tested on: SNB-19 CNS
SF-539 CNS = tested on: SF-539 CNS
HL-60(TB) leukemia = tested on: HL-60(TB) leukemia
OVCAR-4 ovarian = tested on: OVCAR-4 ovarian
RPMI-8226 leukemia = tested on: RPMI-8226 leukemia

Structure (SMILES) | TGI (U251 CNS) | TGI (MDA-MB-231 breast) | TGI (MALME-3M melanoma) | TGI (MDA-MB-435) | TGI (OVCAR-5 ovarian) | TGI (HS 578T breast) | TGI (MOLT-4 leukemia) | TGI (SNB-19 CNS) | TGI (SF-539 CNS) | TGI (HL-60(TB) leukemia) | TGI (OVCAR-4 ovarian) | TGI (RPMI-8226 leukemia)
Cc1cc(-c2nc3cc(O)ccc3s2)ccc1N | > 100 µM | > 100 µM | > 100 µM | > 100 µM | 75.5 µM | > 100 µM | > 100 µM | > 100 µM | 49.3 µM | > 100 µM | > 100 µM | 
COc1cc(-c2oc(C=Nc3ccccc3)c([N+](=O)[O-])c2-c2ccc(O)c(OC)c2)ccc1O | 66.1 µM | > 95.7 µM |  | > 85.9 µM | > 89.6 µM | > 100 µM | > 84.7 µM | 80.1 µM | 42.9 µM | 4.28 µM | 67.8 µM | 72.4 µM
C/C(=N/NC(=S)NCCc1ccccn1)c1cnccn1 | > 100 µM | > 100 µM | > 100 µM | > 100 µM | > 100 µM | > 100 µM | 41.4 µM | > 100 µM |  |  | > 100 µM | 80 µM
CN(C)c1ccc(N=Nc2cccc3ncccc23)cc1 | > 100 µM | > 100 µM | > 100 µM | > 79.8 µM |  | > 100 µM | > 100 µM | > 100 µM | > 100 µM | 35.9 µM | > 100 µM | > 68.1 µM
[O-]c1c[n+](CC[n+]2cc([O-])on2)no1 | > 100 µM | > 100 µM | > 100 µM | > 100 µM | > 100 µM | > 100 µM | > 100 µM | > 100 µM |  | > 100 µM | > 100 µM | > 100 µM

From PubChem BioAssay (NCI)
